The test system of data set [1] is SARS2-S pseudovirus. The note with it: Huh-7 cells, screening at 20 µM.
The next data set concerns VSV-G pseudovirus. Put plainly: microbe, parasite or virus in culture. It counts as cell-based. Conditions: Huh-7, read-out: VSV-G pseudovirus EC50.
A short description of another data set: in vitro. Conditions: human.
Data set [2] has as its system SARS2-S pseudovirus. Put plainly: in vitro. The note with it: human.
The test system of data set [3] is SARS2-S pseudovirus. Briefly: microbe, parasite or virus in culture. The note with it: Huh-7, 48 h; for EC50: read-out: SARS2-S pseudovirus EC50; for EC90: read-out: SARS2-S pseudovirus EC90.
Another data set concerns SARS-CoV-2 (WIV04). It counts as cell-based.
The next data set relates to SARS-CoV S pseudovirus. Briefly: microbe, parasite or virus in culture. It is filed as cell-based. Conditions: Severe acute respiratory syndrome coronavirus; for EC50: Huh-7, read-out: SARS-CoV S pseudovirus EC50; for EC90: Huh-7, read-out: SARS-CoV S pseudovirus EC90.
Another data set concerns COVID-19. The note with it: critically ill patients; cited from earlier work.
[4] abbreviates: Huh-7 CC50, Table 2, mean ± SEM from two independent experiments.

Each structure is given as a SMILES string. “Also recorded” adds a separate entry of the source.

Consider 17 compounds from paper PMC7594953 (Acta Pharmacologica Sinica, 2020).

The term EC50 denotes the concentration at which the effect is half-maximal. What is called EC90 is the point of the concentration-response curve where the effect stands at 90%.

Regarding `Cc1ccc(NC(=O)c2ccc(CN3CCN(C)CC3)cc2)cc1Nc1nccc(-c2cccnc2)n1` [imatinib], the “Activity in SARS2-S pseudovirus screening (in words)” value in the data set on SARS2-S pseudovirus [1] was “weak activity”.

Take `CNCCCC1c2ccccc2C=Cc2ccccc21` [Protriptyline]: the EC50 in the data set with VSV-G pseudovirus is over 20 µM. In the data set “in vitro” (Huh7 CC50), this compound registered a CC50 of over 20 µM. The selectivity ratio with SARS2-S pseudovirus [2] was over 13.5. Besides, in the data set on SARS2-S pseudovirus [3], the concentration giving a half-maximal response (EC50) was determined as 1.68 µM and the EC90 was 7.21 µM.

Consider `OCCN1CCN(CCCN2c3ccccc3Sc3ccc(Cl)cc32)CC1` [Perphenazine], for which the EC50 in the data set on VSV-G pseudovirus is over 20 µM. The “Activity against native SARS-CoV-2 replication (in words)” value with SARS-CoV-2 (WIV04) is “failed to show activity”. The selectivity ratio in the data set with SARS2-S pseudovirus [2] turned out to be 14.7. For the same compound, in the data set with SARS2-S pseudovirus [3], the EC50 amounted to 2.14 µM and the 90% effect concentration (EC90) was over 20 µM.

For the compound `CN(C)CCCN1c2ccccc2Sc2ccc(Cl)cc21` [chlorpromazine], in the data set on SARS2-S pseudovirus [1], the “Activity in SARS2-S pseudovirus screening (in words)” value is given as “limited toxicity/activity window”.

Regarding `CNCCC=C1c2ccccc2CCc2ccccc21` [Nortriptyline], the EC50 in the data set on VSV-G pseudovirus came out at 17.2 µM. In addition, the “Activity against native SARS-CoV-2 replication (in words)” value in the data set on SARS-CoV-2 (WIV04) is “failed to show activity”. For the same compound, in the data set “in vitro” (Huh7 CC50), the CC50 turned out to be 16.8 µM. The selectivity ratio with SARS2-S pseudovirus [2] was found to be 14.5. Besides, in the data set with SARS2-S pseudovirus [3], the concentration for a half-maximal effect (EC50) amounted to 1.06 µM and the EC90 is 5.26 µM.

`OCCN1CCN(CCC=C2c3ccccc3Sc3ccc(C(F)(F)F)cc32)CC1` [Flupenthixol]: the EC50 came to 17.9 µM in the data set on VSV-G pseudovirus, 1.39 ± 0.35 µM in the data set with SARS-CoV S pseudovirus and 1.45 µM in the data set on SARS2-S pseudovirus [3]. For the same compound, the “Activity against native SARS-CoV-2 replication (in words)” value in the data set on SARS-CoV-2 (WIV04) is “significantly inhibited SARS2 replication”. For the same compound, the concentration for an effect of 90% (EC90) with SARS-CoV S pseudovirus came to 10.8 ± 1.05 µM; with SARS2-S pseudovirus [3] it was 8.68 µM. The compound also yielded a CC50 in the data set “in vitro” (setting [4]) of 14.7 ± 3.28 µM. Further, the selectivity ratio in the data set on SARS2-S pseudovirus [2] stood at 11.7.

As to `CN(C)CC/C=C1/c2ccccc2Sc2ccc(Cl)cc21` [Chlorprothixene], the figures for the 50% effective concentration (EC50) in the data set on VSV-G pseudovirus and in the data set on SARS2-S pseudovirus [3] were over 20 µM and 2.15 µM, respectively. In addition, in the data set with SARS-CoV-2 (WIV04), the “Activity against native SARS-CoV-2 replication (in words)” value was “failed to show activity; also recorded: no anti-SARS-CoV-2 activity”. Also, the selectivity ratio with SARS2-S pseudovirus [2] is over 11.9. In addition, in the data set with SARS2-S pseudovirus [3], the concentration for an effect of 90% (EC90) stood at 23.8 µM.

Take `CC(CN1c2ccccc2Sc2ccccc21)N(C)C` (stereo not drawn) [Promethazine]: the EC50 with VSV-G pseudovirus is over 20 µM. Further, the “Activity against native SARS-CoV-2 replication (in words)” value in the data set with SARS-CoV-2 (WIV04) was “failed to show activity”. Further, the selectivity ratio in the data set on SARS2-S pseudovirus [2] was over 20.8. In the data set on SARS2-S pseudovirus [3], the 50% effective concentration (EC50) turned out to be 0.96 µM and the 90% effect concentration (EC90) is 18.2 µM.

On to `COc1cc2ncnc(Nc3ccc(F)c(Cl)c3)c2cc1OCCCN1CCOCC1` [Gefitinib], for which the EC90 in the data set on SARS2-S pseudovirus [3] turned out to be 20.3 µM.

Regarding `CN1CCCC(n2nc(Cc3ccc(Cl)cc3)c3ccccc3c2=O)CC1` (stereo not drawn) [Azelastine], the EC50 with VSV-G pseudovirus was over 20 µM; with SARS-CoV S pseudovirus it was 2.36 ± 1.57 µM; in the data set on SARS2-S pseudovirus [3] it was 1.81 µM. Moreover, in the data set with SARS-CoV-2 (WIV04), the “Activity against native SARS-CoV-2 replication (in words)” value is “significantly inhibited SARS2 replication”. Moreover, the values for the concentration for an effect of 90% (EC90) in the data set with SARS-CoV S pseudovirus and in the data set with SARS2-S pseudovirus [3] were over 20 µM and 5.63 µM, respectively. In the data set “in vitro” (setting [4]), this compound gave a CC50 of over 20 µM. In the data set with SARS2-S pseudovirus [2], the selectivity ratio is over 11.3.

With `CCCCc1oc2ccccc2c1C(=O)c1cc(I)c(OCCN(CC)CC)c(I)c1` [Amiodarone], in the data set with SARS-CoV-2 (WIV04), the “Activity against native SARS-CoV-2 replication (in words)” value was “significantly inhibited SARS2 replication”. For the same compound, the 90% effect concentration (EC90) is over 20 µM in the data set on SARS-CoV S pseudovirus and 19.4 µM in the data set on SARS2-S pseudovirus [3].

Take `CN(C)[C@@H](CCOc1cccc2ccccc12)c1ccccc1` [Dapoxetine]: the EC50 in the data set with VSV-G pseudovirus is 18.9 µM; in the data set on SARS2-S pseudovirus [3] it was 1.19 µM. Besides, in the data set on SARS2-S pseudovirus [2], the selectivity ratio was 13.1. In addition, the EC90 with SARS2-S pseudovirus [3] was found to be 18 µM.

`O=C(O[C@H]1CN2CCC1CC2)N1CCc2ccccc2[C@@H]1c1ccccc1` [Solifenacin]: the EC50 in the data set with VSV-G pseudovirus was over 20 µM. Further, in the data set with SARS2-S pseudovirus [2], the selectivity ratio was over 9.66. Moreover, in the data set with SARS2-S pseudovirus [3], the EC50 worked out at 2.03 µM and the EC90 came to 8.98 µM.

Consider `CC(CN(C)C)CN1c2ccccc2Sc2ccccc21` (stereo not drawn) [Trimeprazine], for which the 50% effective concentration (EC50) stood at 5.87 µM in the data set with VSV-G pseudovirus, 0.66 ± 0.45 µM in the data set with SARS-CoV S pseudovirus and 0.97 µM in the data set with SARS2-S pseudovirus [3]. Moreover, in the data set with SARS-CoV-2 (WIV04), the “Activity against native SARS-CoV-2 replication (in words)” value is recorded as “significantly inhibited SARS2 replication”. The figures for the concentration for an effect of 90% (EC90) with SARS-CoV S pseudovirus and with SARS2-S pseudovirus [3] were 4.3 ± 0.48 µM and 3.77 µM, respectively. The compound also gave a CC50 in the data set “in vitro” (setting [4]) of 16.7 ± 1.89 µM. Moreover, in the data set on SARS2-S pseudovirus [2], the selectivity ratio worked out at 14.2.

As for `COc1cc(Nc2c(C#N)cnc3cc(OCCCN4CCN(C)CC4)c(OC)cc23)c(Cl)cc1Cl` [Bosutinib], the EC50 was 5.07 µM in the data set on VSV-G pseudovirus, 1.04 ± 0.05 µM with SARS-CoV S pseudovirus and 1.3 µM in the data set on SARS2-S pseudovirus [3]. Besides, the “Activity against native SARS-CoV-2 replication (in words)” value in the data set on SARS-CoV-2 (WIV04) is recorded as “significantly inhibited SARS2 replication”. Also, the concentration for an effect of 90% (EC90) turned out to be 3.15 ± 0.01 µM in the data set with SARS-CoV S pseudovirus and 1.56 µM in the data set with SARS2-S pseudovirus [3]. The compound also came in with a CC50 in “in vitro” (setting [4]) of 13.6 ± 2.16 µM. Moreover, the selectivity ratio in the data set with SARS2-S pseudovirus [2] was determined as 13.6.

On to `CCC(CC)COC(=O)[C@H](C)N[P@](=O)(OC[C@H]1O[C@@](C#N)(c2ccc3c(N)ncnn23)[C@H](O)[C@@H]1O)Oc1ccccc1` [remdesivir], for which the “Improvement of oxygen support” value with COVID-19 is recorded as 68%.

As to `CN(C)CCOc1ccc(/C(=C(/CCCl)c2ccccc2)c2ccccc2)cc1` [Toremifene], the figures for the EC50 in the data set on VSV-G pseudovirus, in the data set on SARS-CoV S pseudovirus and in the data set on SARS2-S pseudovirus [3] were 17.7 µM, 2.28 ± 1.09 µM and 1.92 µM, respectively. The “Activity against native SARS-CoV-2 replication (in words)” value in the data set with SARS-CoV-2 (WIV04) is reported as “significantly inhibited SARS2 replication”. Also, the concentration for an effect of 90% (EC90) in the data set with SARS-CoV S pseudovirus is over 20 µM; with SARS2-S pseudovirus [3] it was 13 µM. In addition, the CC50 in “in vitro” (setting [4]) was over 20 µM. Besides, the selectivity ratio in the data set with SARS2-S pseudovirus [2] turned out to be 8.92.
